Source: ChEMBL document CHEMBL1671624, “Efficacy of quinoxaline-2-carboxylate 1,4-di-N-oxide derivatives in experimental tuberculosis” (Antimicrob Agents Chemother, 2008)
≈ marks a conversion by molar mass, not a printed value.

How the values were obtained:
[1] = test system: Mycobacterium tuberculosis; assay: Antibacterial activity against Mycobacterium tuberculosis H37Rv by microplate Alamar Blue assay; type: functional
[2] = Selectivity index, ratio of EC50 for african green monkey Vero cells to MIC for Mycobacterium tuberculosis; type: functional
[3] = test system: Mycobacterium tuberculosis; assay: Antibacterial activity against Mycobacterium tuberculosis by microplate Alamar Blue assay; type: functional
[4] = test system: Mycobacterium tuberculosis; assay: Ratio of EC50 to MIC for Mycobacterium tuberculosis; type: functional
[5] = test system: Mycobacterium tuberculosis; assay: Antibacterial activity against p-aminosalicylic acid-resistant Mycobacterium tuberculosis by microplate Alamar Blue assay; type: functional
[6] = test system: Mycobacterium tuberculosis; assay: Antibacterial activity against Mycobacterium tuberculosis Erdman infected in gamma interferon gene knockout C57BL/6 mouse assessed as bacterial load in spleen at 300 mg/kg, po administered 18 days postinfection for 9 days measured on day 24 (Rvb= 6.57+/-0.17 log CFU); type: functional
Mus musculus [7] = assay: Toxicity in C57BL/6 mouse assessed as acute reactions upto 1000 mg/kg, po; type: organism-based; design: dose 1000 mg/kg, route oral; details: in vivo
[8] = test system: Mycobacterium tuberculosis; assay: Antimicrobial activity against Mycobacterium tuberculosis Erdman by microplate Alamar Blue assay; type: functional
[9] = test system: Mycobacterium tuberculosis; assay: Antibacterial activity against Mycobacterium tuberculosis Erdman infected in gamma interferon gene knockout C57BL/6 mouse assessed as bacterial load in lung at 300 mg/kg, po administered 18 days postinfection for 9 days measured on day 24 (Rvb= 4.47+/-0.12 log CFU); type: functional
Mus musculus [10] = assay: Toxicity in C57BL/6 mouse assessed as acute adverse effects upto 1000 mg/kg, po; type: organism-based; design: dose 1000 mg/kg, route oral; details: in vivo
[11] = test system: Mycobacterium tuberculosis; assay: Ratio of […] for Mycobacterium tuberculosis H37Rv; type: functional
Blood [12] = assay: Drug level in C57BL/6 mouse blood at 300 mg/kg, po; type: ADME, organism-based; design: dose 300 mg/kg, route oral; details: in vivo
[13] = Cmax in C57BL/6 mouse serum after 15 to 30 mins at 100 to 200 mg/kg, po; type: ADME, organism-based; design: dose 100-200 mg/kg, route oral
Mus musculus [14] = assay: Toxicity in gamma interferon gene knockout C57BL/6 mouse infected with Mycobacterium tuberculosis Erdman assessed as lethargic at 300 mg/kg, po administered 18 days postinfection for 9 days; type: organism-based; design: dose 300 mg/kg, route oral; details: in vivo
[15] = test system: Mycobacterium tuberculosis; assay: Antibacterial activity against Mycobacterium tuberculosis Erdman infected in gamma interferon gene knockout C57BL/6 mouse assessed as log reduction in bacterial load in lung at 100 mg/kg, po administered 18 days postinfection for 9 days measured on day 24 relative to control; type: functional
[16] = Terminal half life in C57BL/6 mouse; type: ADME, organism-based; details: in vivo, read-out: beta t1/2 (converted)
[17] = test system: Mycobacterium tuberculosis; assay: Antibacterial activity against Mycobacterium tuberculosis Erdman infected in gamma interferon gene knockout C57BL/6 mouse assessed as log reduction in bacterial load in spleen at 300 mg/kg, po administered 18 days postinfection for 9 days measured on day 24 relative to control; type: functional
[18] = test system: Mycobacterium tuberculosis; assay: Antibacterial activity against Mycobacterium tuberculosis Erdman infected in gamma interferon gene knockout C57BL/6 mouse assessed as log reduction in bacterial load in spleen at 25 mg/kg, po administered 18 days postinfection for 9 days measured on day 24 relative to control; type: functional
[19] = test system: Mycobacterium tuberculosis; assay: Antibacterial activity against Mycobacterium tuberculosis Erdman infected in gamma interferon gene knockout C57BL/6 mouse assessed as log reduction in bacterial load in lung at 25 mg/kg, po administered 18 days postinfection for 9 days measured on day 24 relative to control; type: functional
[20] = test system: Mycobacterium tuberculosis; assay: Antibacterial activity against Mycobacterium tuberculosis H37Rv assessed as compound concentration required for 99.9% bacterial killing by microplate Alamar Blue assay; type: functional
[21] = test system: Mycobacterium tuberculosis; assay: Antibacterial activity against Mycobacterium tuberculosis H37Rv under aerobic conditions; type: functional
[22] = test system: Mycobacterium tuberculosis; assay: Antibacterial activity against Mycobacterium tuberculosis H37Rv under anaerobic conditions by luciferase based low oxygen recovery assay; type: functional
[23] = test system: Mycobacterium tuberculosis; assay: Antibacterial activity against Mycobacterium tuberculosis Erdman infected in gamma interferon gene knockout C57BL/6 mouse assessed as log reduction in bacterial load in spleen at 100 mg/kg, po administered 18 days postinfection for 9 days measured on day 24 relative to control; type: functional
Mus musculus [24] = assay: Toxicity in gamma interferon gene knockout C57BL/6 mouse infected with Mycobacterium tuberculosis Erdman assessed as with a hunched posture at 300 mg/kg, po administered 18 days postinfection for 9 days; type: organism-based; design: dose 300 mg/kg, route oral; details: in vivo
Blood [25] = assay: Drug level in C57BL/6 mouse blood at 100 mg/kg, po; type: ADME, organism-based; design: dose 100 mg/kg, route oral; details: in vivo
[26] = test system: Mycobacterium tuberculosis; assay: Antibacterial activity against Mycobacterium tuberculosis Erdman infected in gamma interferon gene knockout C57BL/6 mouse assessed as log reduction in bacterial load in lung at 300 mg/kg, po administered 18 days postinfection for 9 days measured on day 24 relative to control; type: functional
Blood [27] = assay: Drug level in C57BL/6 mouse blood at 25 mg/kg, po; type: ADME, organism-based; design: dose 25 mg/kg, route oral; details: in vivo
[28] = test system: Mycobacterium tuberculosis; assay: Antibacterial activity against Mycobacterium tuberculosis Erdman infected in gamma interferon gene knockout C57BL/6 mouse assessed as bacterial load in spleen at 25 mg/kg, po administered 18 days postinfection for 9 days measured on day 24 (Rvb= 6.57+/-0.17 log CFU); type: functional
[29] = test system: Mycobacterium tuberculosis; assay: Antibacterial activity against Mycobacterium tuberculosis Erdman infected in gamma interferon gene knockout C57BL/6 mouse assessed as bacterial load in lung at 25 mg/kg, po administered 18 days postinfection for 9 days measured on day 24 (Rvb= 4.47+/-0.12 log CFU); type: functional

CCOC(=O)c1c(C)[n+]([O-])c2cc(C)c(C)cc2[n+]1[O-]
MIC [1]: ≤ 3.13 µg/mL | Selectivity Index [2]: >10 | MIC [3]: 6.25 µg/mL (≈ 22.6 µM) | Ratio [4]: 0.46

CCOC(=O)c1c(C)[n+]([O-])c2ccc(C)cc2[n+]1[O-]
MIC [1]: 3.13 µg/mL (≈ 11.9 µM) | MIC [5]: 3.13 µg/mL (≈ 11.9 µM) | Selectivity Index [2]: >40.06 | MIC [3]: 1.56 µg/mL (≈ 5.95 µM) | Ratio [4]: 1.4

CCOC(=O)c1c(C)[n+]([O-])c2ccccc2[n+]1[O-]
MIC [1]: 1.56 µg/mL (≈ 6.28 µM) | Selectivity Index [2]: 30.13 | MIC [3]: 1.56 µg/mL (≈ 6.28 µM) | Ratio [4]: 0.56

CCOC(=O)c1c(C)[n+]([O-])c2cc(Cl)c(Cl)cc2[n+]1[O-]
MIC [1]: 0.2 µg/mL (≈ 0.631 µM) | log10cfu [6]: 6.75 | Activity (Mus musculus [7]): Non-toxic | Selectivity Index [2]: >20 | MIC [8]: 0.39 µg/mL (≈ 1.23 µM) | log10cfu [9]: 7.64 | MIC [3]: 0.2 µg/mL (≈ 0.631 µM) | Ratio [4]: >3.15 | Activity (Mus musculus [10]): Non-toxic

COCCOC(=O)c1c(C)[n+]([O-])c2cc(Cl)c(Cl)cc2[n+]1[O-]
MIC [1]: ≤ 0.2 µg/mL | MIC [5]: 0.78 µg/mL (≈ 2.25 µM) | log10cfu [6]: 7.18 | Activity (Mus musculus [7]): Non-toxic | Selectivity Index [2]: 11.54 | MIC [8]: 0.39 µg/mL (≈ 1.12 µM) | log10cfu [9]: 8.73 | MIC [3]: 0.39 µg/mL (≈ 1.12 µM) | Ratio [4]: >4 | Activity (Mus musculus [10]): Non-toxic

Cc1ccc2c(c1)[n+]([O-])c(C(=O)OCc1ccccc1)c(C)[n+]2[O-]
MIC [1]: 0.39 µg/mL (≈ 1.2 µM) | MIC [5]: 0.78 µg/mL (≈ 2.4 µM) | log10cfu [6]: 6.63 | Activity (Mus musculus [7]): Non-toxic | Selectivity Index [2]: 143.7 | MIC [8]: 0.78 µg/mL (≈ 2.4 µM) | log10cfu [9]: 7.17 | MIC [3]: 0.39 µg/mL (≈ 1.2 µM) | Ratio [4]: 2.9 | Activity (Mus musculus [10]): Non-toxic

Cc1c(C(=O)OCc2ccccc2)[n+]([O-])c2ccccc2[n+]1[O-]
MIC [1]: 0.2 µg/mL (≈ 0.645 µM) | MIC [5]: 0.2 µg/mL (≈ 0.645 µM) | log10cfu [6]: 6.96 | Activity (Mus musculus [7]): Non-toxic | Selectivity Index [2]: 470 | MIC [8]: 0.1 µg/mL (≈ 0.322 µM) | log10cfu [9]: 7.41 | MIC [3]: 0.1 µg/mL (≈ 0.322 µM) | Ratio [4]: 1.5 | Activity (Mus musculus [10]): Non-toxic

Cc1c(C(=O)OCc2ccccc2)[n+]([O-])c2cc(Cl)c(Cl)cc2[n+]1[O-]
MIC [1]: 0.39 µg/mL (≈ 1.03 µM) | log10cfu [6]: 7.17 | Activity (Mus musculus [7]): Non-toxic | Selectivity Index [2]: 29 | MIC [8]: 0.1 µg/mL (≈ 0.264 µM) | log10cfu [9]: 8.07 | MIC [3]: 0.2 µg/mL (≈ 0.527 µM) | Ratio [4]: 14.35 | Activity (Mus musculus [10]): Non-toxic

COC(=O)c1c(C)[n+]([O-])c2ccc(C)cc2[n+]1[O-]
MIC [1]: 3.13 µg/mL (≈ 12.6 µM) | MIC [5]: 3.13 µg/mL (≈ 12.6 µM) | Selectivity Index [2]: >40.06 | MIC [3]: 1.56 µg/mL (≈ 6.28 µM) | Ratio [4]: 1.24

COC(=O)c1c(C)[n+]([O-])c2cc(C)c(C)cc2[n+]1[O-]
MIC [1]: 3.13 µg/mL (≈ 11.9 µM) | MIC [5]: 3.13 µg/mL (≈ 11.9 µM) | Selectivity Index [2]: >20 | MIC [3]: 3.13 µg/mL (≈ 11.9 µM) | Ratio [4]: 0.52

CCOC(=O)c1c(C)[n+]([O-])c2ccc(Cl)cc2[n+]1[O-]
Ratio [11]: 4.2 | MIC [1]: 0.2 µg/mL (≈ 0.708 µM) | Drug uptake (Blood [12]): 9 µg/mL | Cmax [13]: 5000 ng/mL | Activity (Mus musculus [14]): Toxic | log10cfu [15]: 2.03 | half-life [16]: 4 h | log10cfu [17]: 5.51 | log10cfu [6]: 3.95 | log10cfu [18]: 1.61 | log10cfu [19]: 0.99 | Activity (Mus musculus [7]): Non-toxic | MBC [20]: 2.5 µg/mL (≈ 8.84 µM) | MIC [21]: 0.24 µg/mL (≈ 0.849 µM) | Selectivity Index [2]: >50 | MIC [22]: 0.42 µg/mL (≈ 1.49 µM) | MIC [8]: 0.78 µg/mL (≈ 2.76 µM) | log10cfu [9]: 4.55 | MIC [3]: 0.2 µg/mL (≈ 0.708 µM) | log10cfu [23]: 2.72 | Activity (Mus musculus [24]): Toxic | Drug uptake (Blood [25]): 6 µg/mL | Ratio [4]: 2.3 | Activity (Mus musculus [10]): Non-toxic | log10cfu [26]: 5.58 | Drug uptake (Blood [27]): 3 µg/mL

Cc1c(C(=O)OCc2ccccc2)[n+]([O-])c2cc(Cl)ccc2[n+]1[O-]
log10cfu [6]: 6.62 | Activity (Mus musculus [7]): Non-toxic | Selectivity Index [2]: 76.9 | MIC [8]: 0.1 µg/mL (≈ 0.29 µM) | log10cfu [9]: 7.21 | MIC [3]: 0.1 µg/mL (≈ 0.29 µM) | Ratio [4]: 0.01 | Activity (Mus musculus [10]): Non-toxic

NNC(=O)c1ccncc1 [ISONIAZID]
log10cfu [28]: 2.2 | log10cfu [18]: 5.04 | log10cfu [19]: 3.33 | log10cfu [29]: 4.47

O=C(Nc1ccc([N+](=O)[O-])cc1Cl)c1cc(Cl)ccc1O [NICLOSAMIDE]
MIC [21]: 0.28 µg/mL (≈ 0.856 µM) | MIC [22]: 0.32 µg/mL (≈ 0.978 µM)

O=[N+]([O-])c1cn2c(n1)OC[C@@H](OCc1ccc(OC(F)(F)F)cc1)C2 [PRETOMANID]
MIC [21]: 0.1 µg/mL (≈ 0.278 µM) | MIC [22]: 1.4 µg/mL (≈ 3.9 µM)
